Source: patent publication US6492329B1, “Cytokine and hemopoietic factor endogenous production enhancer and methods of use thereof” (Novelos Therapeutics, Inc., priority 1995, dated 2002)

Assays:
[1] = test system: rat embrional fibroblasts (REF); test: Number of REF cells throughout 72-hr incubation; format: cell-based
Description: (§1) To this end, these substances had been incubated for 72 hours with cells of rat embrional fibroblasts (REF) and the same cells, transformed with adenoviral E1A gene in complementation with ras-oncogene (e-ras cell line). Subsequent evaluation of the cellularity of experimental samples was carried out by counting the quantity of cell per milliliter (for REF cell line) or clones in dish (for e-ras cell line).
(§2) Cells were cultivated on DMEM medium supplemented with 10% fetal calf serum and […] gentamicin. Cultivation was carried out in Petri dishes.
(§3) REF cells was cultivated with initial density of 800 000 cell per mL, evaluation of the cellularity was performed at 0, 24, 48 and 72 hours of incubation with the test articles.
(§4) For the test-system for estimation of apoptosis regulation UV-induced cell death was triggered in a dose of 4 Dj. Test articles were added immediately after irradiation. Then, the quantity of cell per milliliter (for REF cell line) or clones in dish (for e-ras cell line) were monitored every 24 hours. For determination of DNA-fragmentation the electrophoresis in agarose gel was used at standard settings.

[2] = test system: leukemia P388 cells; test: Leukemia P388 in mice: ascitic fluid and survival (Example 14); details: for Accumulation of ascitic (weight gain, %): leukemia P388
Description: (§6) An influence of 7 day course of test article daily administration was studied in respect of tumor progression, which was estimated using the two integral indices: pace of mouse weight gain due to accumulation of ascitic fluid, and by animal mean survival time after inoculation.
(§7) The study was carried out on DBA/2 mice weighing 18-21 g. First, tumor cell passage was performed using 6 animals for each cell line. For this, cells kept at the temperature of the liquid nitrogen were de-frozen and adjusted to the concentration of 5×10^6 cells/mL by sterile Hanks' solution. Then, 6 mice were intra peritoneally inoculated with 0.2 mL of each line cellular suspension.
(§8) Ascitic fluid was collected 6 days after the inoculation with L1210 cells, 8 days after the inoculation with P388 ones and 18 days after inoculation with Erlich adenocarcinoma cells. Thus obtained, the samples of passaged tumor cells were used for the main experiments. The fluid liquid was dissolved by sterile Hanks' solution so that cell concentration be 5×10^6 cells/mL for P388 cells and Erlich adenocarcinoma cells, 5×10^5 cells/mL for L1210 cells.
(§9) Eleven groups of animals with no less than 15 mice each were formed for experiments with either tumor cell line. Mice were inoculated with 0.2 mL of resultant cell suspensions per mouse (10^6 P388 and Erlich adenocarcinoma cells/mouse, and 10^5 L1210 cells/mouse). 24 hours after the tumor cells inoculation, animals were given the first injections of the test articles or vehicles. The test article injections were made daily till the 14th day of the experiment or till the animal death. The volume of solutions injected comprised 0.01 mL/g body weight.
(§10) #1—intact animals receiving imitation of tumor cell inoculation (injection of normal saline) which further were treated with normal saline throughout the entire experiment;
(§11) #2—control animals, inoculated with tumor cells, which further were treated with test article vehicle (normal saline);

[3] = test system: normal human lymphocytes; test: Proliferation/apoptosis of normal human lymphocytes (cell number per well, flow cytofluorometry); format: cell-based
[4] = test system: e-ras cell line (REF transformed with E1A and ras-oncogene); test: Number of clones of e-ras cells throughout 72-hr incubation; format: cell-based, rat
Description: as §1, §2
(§5) E-ras cells were seeded at a cell density of 300 cells per 5 cm dish. 7 days after growth of e-ras cells had been started the quantity of clones was evaluated and the test articles were added into the dishes.
as §4

[5] = test system: leukemia P388 cells; test: Leukemia P388 in mice: serum cytokines, ascitic fluid, survival (Example 5); details: for Accumulation of ascitic fluid (weight gain) / Concentration in serum: IFNα / Concentration in serum: IL-1 / Concentration in serum: IL-2 / Concentration in serum: IL-6 / Concentration in serum: TNFα: P388 mice
Description: (§12) An influence of 7 day course of test article daily administration was studied in respect of variations of serum cytokine levels (IL-1, IL-2, IL-6, IFNα, TNF). In parallel, the tumor progression was estimated using the two integral indices: pace of mouse weight gain due to accumulation of ascitic fluid, and by animal mean survival time after inoculation.
(§13) The study was carried out on DBA/2 mice weighing 18-21 g. First, tumor cell passage was performed using 6 animals for each cell line. For this, cells kept at the temperature of the liquid nitrogen were de-frozen and adjusted to the concentration of 5×10^6 cells/mL by sterile Hanks' solution. Then, 6 mice were intraperitoneally inoculated with 0.2 mL of each line cellular suspension.
(§14) Ascitic fluid was collected 6 days after the inoculation with L1210 cells and 8 days after the inoculation with P388 ones. Thus obtained, the samples of passaged tumor cells were used for the main experiments. The fluid liquid was dissolved by sterile Hanks' solution so that cell concentration be 5×10^6 cells/mL for P388 cells and 5×10^5 cells/mL for L1210 cells.
(§15) Nine groups of animals with no less than 15 mice each were formed for experiments with either tumor cell line. Mice were inoculated with 0.2 mL of resultant cell suspensions per mouse (10^6 P388 cells/mouse, and 10^5 L1210 cells/mouse). 24 hours after the tumor cells inoculation. animals were given the first injections of the test articles or vehicles. The test article injections were made daily till the 14th day of the experiment or until the animal's death. The volume of solutions injected comprised 0.01 mL/g body weight.
as §10, §11

[6] = test system: rat embrional fibroblasts (REF) after UV-irradiation; test: Number of REF cells after UV-irradiation; format: cell-based
Description: as §1, §2, §3, §4

[7] = test system: leukemia L1210 cells; test: Leukemia L1210 in mice: serum cytokines, ascitic fluid, survival (Example 5); details: for Accumulation of ascitic fluid (weight gain) / Concentration in serum: IFNα / Concentration in serum: IL-1 / Concentration in serum: IL-2 / Concentration in serum: IL-6 / Concentration in serum: TNFα: L1210 mice
Description: as §12, §13, §14, §15, §10, §11

[8] = test system: e-ras cells after UV-irradiation; test: Number of clones of e-ras cells after UV-irradiation; format: cell-based, rat
Description: as §1, §2, §5, §4

[9] = test system: Erlich adenocarcinoma cells; test: Erlich adenocarcinoma in mice: ascitic fluid and survival (Example 14); details: for Accumulation of ascitic (weight gain, %): Erlich adenocarcinoma
Description: as §6, §7, §8, §9, §10, §11

[10] = test system: HL-60 cells; test: Proliferation/apoptosis of HL-60 tumor cells (cell number per well, flow cytofluorometry)
Description: Subsequent evaluation of the cell cycle parameters was carried out by the flow cytofluorometry technique.
A mononuclear fraction of blood leukocytes were obtained by centrifugation in gradient of fikoll-metrizoat (Histopaque, Sigma). […] Cell viability was estimated by the Trypan blue exclusion method, then the cell suspension was placed into wells of 96-well microtiter plates—200,000 cells per well. […] Cultivation was carried out in closed flasks, the medium volume was 12 mL, it was changed every four days by centrifugation. The nature of the cells growth was suspensive. […] 50 μL of each test solution were added to one or the other cell culture and thereafter cells were cultivated for 24-96 hours. Then, they were tested by the flow cytofluorometry to estimate DNA content in the cell nuclei. In case of apoptosis-like cellular death, the portion of cell nuclei with normal content of DNA became reduced, while the portion of cell nuclei containing abnormally small DNA quantity became larger.
The analysis procedure was the following: after incubation completion, cells were centrifuged and transferred to a standard phosphate isotonic buffer pH 7.4, containing RNA-ase A (20 μg/mL), ethidium bromide (fluorometric indicator for double stranded nucleic acid. 10 μg/mL) and MgCl2 (5 mM). After the cells were disintegrated by nonionic detergent Triton X-100 (final concentration 0.1%). The suspension of cell nuclei thus obtained was analyzed by flow cytofluorometry with an argon laser as a source of light (wave length 488 nm). The red fluorescence due to DNA bound ethidium bromide was taken to be the measure of DNA content in the cell nuclei.

[11] = test system: leukemia L1210 cells; test: Leukemia L1210 in mice: ascitic fluid and survival (Example 14); details: for Accumulation of ascitic (weight gain, %): leukemia L1210
Description: as §6, §7, §8, §9, §10, §11

Structure (SMILES): O=c1[nH]cnc2c1ncn2[C@@H]1O[C@H](CO)[C@@H](O)[C@H]1O [0.1% inosine, hypoxanthine-9-D-ribofuranoside]
- number of REF cells (M ± m) ([1]; 0 hours of incubation): 811 ± 10 × 10^3 cells
- number of REF cells (M ± m) ([1]; 24 hours of incubation): 1426 ± 24 × 10^3 cells
- number of REF cells (M ± m) ([1]; 48 hours of incubation): 2642 ± 25 × 10^3 cells
- number of REF cells (M ± m) ([1]; 72 hours of incubation): 5034 ± 128 × 10^3 cells
- Accumulation of ascitic (weight gain, %) ([2]; number of injection 0): 0.5 ± 0.2%
- Accumulation of ascitic (weight gain, %) ([2]; number of injection 3): 3.9 ± 0.4%
- Accumulation of ascitic (weight gain, %) ([2]; number of injection 7): 16.6 ± 2.6%
- Mean survival time ([2]; mice inoculated with leukemia P388 cells): 21.8 ± 0.6
- number of normal lymphocytes per well ([3]; 24 hours incubation): 26 ± 4 × 10^4 cells
- number of normal lymphocytes per well ([3]; 48 hours incubation): 78 ± 7 × 10^4 cells
- number of normal lymphocytes per well ([3]; 72 hours incubation): 141 ± 12 × 10^4 cells
- number of normal lymphocytes per well ([3]; 96 hours incubation): 216 ± 16 × 10^4 cells
- number of clones of e-ras cells (M ± m) ([4]; 0 hours of incubation): 292 ± 11
- number of clones of e-ras cells (M ± m) ([4]; 24 hours of incubation): 290 ± 8
- number of clones of e-ras cells (M ± m) ([4]; 48 hours of incubation): 269 ± 8
- number of clones of e-ras cells (M ± m) ([4]; 72 hours of incubation): 243 ± 8
- Accumulation of ascitic fluid (weight gain) ([5]; 0 injections): 0.58 ± 0.13%
- Concentration in serum: IFNα ([5]; 0 injections): 81.4 ± 6.13 pg/mL
- Concentration in serum: IL-1 ([5]; 0 injections): 36.7 ± 5.12 pg/mL
- Concentration in serum: IL-2 ([5]; 0 injections): 16.50 ± 1.09 pg/mL
- Concentration in serum: IL-6 ([5]; 0 injections): 115.0 ± 12.5 pg/mL
- Concentration in serum: TNFα ([5]; 0 injections): 122.0 ± 10.0 pg/mL
- Accumulation of ascitic fluid (weight gain) ([5]; 3 daily injections): 6.8 ± 0.8%
- Concentration in serum: IFNα ([5]; 3 daily injections): 105. ± 11.3 pg/mL
- Concentration in serum: IL-1 ([5]; 3 daily injections): 48.2 ± 7.13 pg/mL
- Concentration in serum: IL-2 ([5]; 3 daily injections): 20.19 ± 1.54 pg/mL
- Concentration in serum: IL-6 ([5]; 3 daily injections): 90.0 ± 7.11 pg/mL
- Concentration in serum: TNFα ([5]; 3 daily injections): 96.5 ± 8.7 pg/mL
- Accumulation of ascitic fluid (weight gain) ([5]; 7 daily injections): 25.0 ± 2.22%
- Concentration in serum: IFNα ([5]; 7 daily injections): 184. ± 16.1 pg/mL
- Concentration in serum: IL-1 ([5]; 7 daily injections): 31.0 ± 5.12 pg/mL
- Concentration in serum: IL-2 ([5]; 7 daily injections): 13.40 ± 1.68 pg/mL
- Concentration in serum: IL-6 ([5]; 7 daily injections): 129.0 ± 10.4 pg/mL
- Concentration in serum: TNFα ([5]; 7 daily injections): 144.8 ± 12.9 pg/mL
- Mean survival time ([5]; mice inoculated with leukemia P388 cells, daily injections till day 14 or death): 9.8 ± 0.21
- number of REF cells after UV-irradiation (M ± m) ([6]; 0 hours): 811 ± 10 × 10^3 cells
- number of REF cells after UV-irradiation (M ± m) ([6]; 24 hours): 426 ± 24 × 10^3 cells
- number of REF cells after UV-irradiation (M ± m) ([6]; 48 hours): 262 ± 22 × 10^3 cells
- number of REF cells after UV-irradiation (M ± m) ([6]; 72 hours): 234 ± 28 × 10^3 cells
- Accumulation of ascitic fluid (weight gain) ([7]; 0 injections): 0.61%
- Concentration in serum: IFNα ([7]; 0 injections): 117.3 pg/mL
- Concentration in serum: IL-1 ([7]; 0 injections): 41.0 pg/mL
- Concentration in serum: IL-2 ([7]; 0 injections): 17.80 pg/mL
- Concentration in serum: IL-6 ([7]; 0 injections): 108. pg/mL
- Concentration in serum: TNFα ([7]; 0 injections): 104.3 pg/mL
- Accumulation of ascitic fluid (weight gain) ([7]; 3 daily injections): 7.02%
- Concentration in serum: IFNα ([7]; 3 daily injections): 160.0 pg/mL
- Concentration in serum: IL-1 ([7]; 3 daily injections): 55.6 pg/mL
- Concentration in serum: IL-2 ([7]; 3 daily injections): 22.3 pg/mL
- Concentration in serum: IL-6 ([7]; 3 daily injections): 91.0 pg/mL
- Concentration in serum: TNFα ([7]; 3 daily injections): 130.0 pg/mL
- Accumulation of ascitic fluid (weight gain) ([7]; 7 daily injections): 26.30%
- Concentration in serum: IFNα ([7]; 7 daily injections): 205. pg/mL
- Concentration in serum: IL-1 ([7]; 7 daily injections): 36.40 pg/mL
- Concentration in serum: IL-2 ([7]; 7 daily injections): 14.6 pg/mL
- Concentration in serum: IL-6 ([7]; 7 daily injections): 119. pg/mL
- Concentration in serum: TNFα ([7]; 7 daily injections): 157.0 pg/mL
- Mean survival time ([7]; mice inoculated with leukemia L1210 cells, daily injections till day 14 or death): 9.61 ± 0.18
- number of clones of e-ras cells after UV-irradiation (M ± m) ([8]; 0 hours): 292 ± 11
- number of clones of e-ras cells after UV-irradiation (M ± m) ([8]; 24 hours): 190 ± 8
- number of clones of e-ras cells after UV-irradiation (M ± m) ([8]; 48 hours): 129 ± 8
- number of clones of e-ras cells after UV-irradiation (M ± m) ([8]; 72 hours): 93 ± 8
- Accumulation of ascitic (weight gain, %) ([9]; number of injection 0): 0.8 ± 0.2%
- Accumulation of ascitic (weight gain, %) ([9]; number of injection 3): 11.9 ± 0.2%
- Accumulation of ascitic (weight gain, %) ([9]; number of injection 7): 26.8 ± 2.1%
- Mean survival time ([9]; mice inoculated with Erlich adenocarcinoma cells): 10.1 ± 0.6
- number of HL-60 cells per well ([10]; 24 hours incubation): 96 ± 8 × 10^4 cells
- number of HL-60 cells per well ([10]; 48 hours incubation): 152 ± 8 × 10^4 cells
- number of HL-60 cells per well ([10]; 72 hours incubation): 312 ± 21 × 10^4 cells
- number of HL-60 cells per well ([10]; 96 hours incubation): 527 ± 18 × 10^4 cells
- Accumulation of ascitic (weight gain, %) ([11]; number of injection 0): 0.56 ± 0.2%
- Accumulation of ascitic (weight gain, %) ([11]; number of injection 3): 7.9 ± 0.4%
- Accumulation of ascitic (weight gain, %) ([11]; number of injection 7): 26.6 ± 2.4%
- Mean survival time ([11]; mice inoculated with leukemia L1210 cells): 9.8 ± 0.6
